In patent US20220248673A1, “FUNGICIDAL COMBINATIONS, MIXTURES AND COMPOSITIONS AND USES THEREOF” (priority 2019, published 2022):

Columns and labels:
[1] = test system: Z. tritici strain Mg Tri-R6; assay: Efficacy on first-leaf fragments of treated wheat plantlets cv. Alixan inoculated with Z. tritici, AUDPC-based (Examples 1-3); format: in vivo, Zymoseptoria tritici; conditions: from AUDPC (21 and 28 dpi), percent of untreated control
Method: Winter wheat plants cv. Alixan (Limagrain) at the BBCH 12 growth stage are treated with a mixture of the compound of Formula I and a fungicide selected from the group consisting of fluindapyr, pydiflumetofen, mefentrifluconazole, fenpicoxamid, inpyrfluxam and isofetamid.
The compound of Formula I and the fungicide (A) are applied at different rates and at different weight ratio with a hand sprayer at 2 bars calibrated. For each condition tested, three replicates (pots) of 6 wheat plants are used.
Fragments of the first leaf are cut and are transferred into a Petri dish containing adapted water agar (6 leaf fragments per Petri dish). Fragments are inoculated with a calibrated pycnospores suspension of Z. tritici strain Mg Tri-R6.
(§1) After inoculation, Petri dishes are incubated in a climatic chamber having a temperature of 20° C. day/17° C. night, photoperiod of 16 h light/8 h dark, and controlled relative humidity. Disease assessments are carried out 21 days post inoculation (dpi) and 28 dpi by measuring the length of the necrosis of the leaf fragment. The intensity of infection is then determined as a percent of the total length of the leaf fragment.
(§2) The efficacy is calculated based on the Area Under the Disease Progress Curve (AUDPC) which is a quantitative measure of disease intensity over time. The most commonly used method for estimating the AUDPC, the trapezoidal method, is performed for each time interval by multiplying the average disease intensity between each pair of adjacent time points by the corresponding time interval.
The fungicide efficacies are determined from the AUDPC values and expressed as a percent of the untreated control.
The compound of Formula I and mefentrifluconazole were applied with a hand sprayer at 2 bars calibrated to deliver the equivalent of 200 L/ha. Three replicates (pots) of 6 wheat plants each were used for each treatment group.
Fragments of the first leaf were cut and transferred into a Petri dish containing adapted water agar (6 leaf fragments per Petri dish). Fragments were inoculated with a calibrated pycnospores suspension of Z. tritici strain Mg Tri-R6.
as §1, with “dishes were” for “dishes are”, “assessments were” for “assessments are”, “infection was” for “infection is”, “as” for “as a”
as §2, with “efficacy was” for “efficacy is”, “method, was” for “method, is”
(§3) The fungicide efficacies were determined from the AUDPC values and expressed as a percent of the untreated control.
The compound of Formula I and fenpicoxamid were applied with a hand sprayer at 2 bars calibrated to deliver the equivalent of 200 L/ha. […]
After inoculation, Petri dishes were incubated in a climatic chamber having a temperature of 20° C. day/17° C. night, photoperiod of 16 h light/8 h dark and controlled relative humidity. […] The intensity of infection was then determined as percent of the total length of the leaf fragment. […]

[2] = test system: Z. tritici strain Mg Tri-R6; assay: Efficacy on first-leaf fragments of treated wheat plantlets cv. Alixan inoculated with Z. tritici, AUDPC-based (Example 4, pydiflumetofen); format: in vivo, Zymoseptoria tritici; conditions: from AUDPC (21 and 28 dpi)
Method: Winter wheat plants cv. Alixan (Limagrain) at the BBCH 12 growth stage were treated with mixture of Compound of Formula I and pydiflumetofen at several rates with a hand sprayer at 2 bars calibrated to deliver the equivalent of 200 L/ha. The Compound of Formula I was applied at 5 g a.i./ha. Pydiflumetofen was applied at 0.00032-0.0016 and 0.008 g a.i./ha. Three replicates (pots) of 6 wheat plants each were used for each condition tested.
After treatment, wheat plants were left to dry at room temperature for 1 hour and then incubated in a climatic chamber having a temperature of 24° C. day/18° C. night, photoperiod of 16 h light/8 h dark and a relative humidity of 65%. Fragments of the first leaf were cut and transferred in Petri dish containing adapted water agar (6 leaf fragments per Petri dish). Fragments were inoculated with a calibrated pycnospores suspension of Z. tritici strain Mg Tri-R6.
After inoculation, Petri dishes were incubated in a climatic chamber having a temperature of 20° C. day/17° C. night, photoperiod of 16 h light/8 h dark and controlled relative humidity.
Disease assessments were carried out 21 days post inoculation (dpi) and 28 dpi by measuring the length of the necrosis of the leaf fragment. The intensity of infection was then determined in percent of the total length of the leaf fragment.
as §2, with “efficacy was” for “efficacy is”, “method, was” for “method, is”
as §3

[3] = fungicide (A) alone, rate 0.39 g a.i./ha

## COc1ccnc(C(=O)N[C@H]2COC(=O)[C@H](Cc3ccccc3)[C@@H](OC(=O)C(C)C)[C@H](C)OC2=O)c1OCOC(=O)C(C)C [Fenpicoxamid, (3S,6S,7R,8R)-8-benzyl-3-{3-[(isobutyryloxy)methoxy]-4-methoxypyridine-2-carboxamido}-6-methyl-4,9-dioxo-1,5-dioxonan-7-yl-isobutyrate]
[1]; [3]
  Observed Efficacy: 56.0%

## CC(O)(Cn1cncn1)c1ccc(Oc2ccc(Cl)cc2)cc1C(F)(F)F (stereo not drawn) [Mefentrifluconazole, 2-[4-(4-chlorophenoxy)-2-(trifluoromethyl)phenyl]-1-(1,2,4-triazol-1-yl)propan-2-ol]
[1]; [3]
  Observed Efficacy: 46.8%

## Cc1ccc(S(=O)(=O)n2cc(F)c(=N)n(C)c2=O)cc1 [Compound of Formula I, 5-fluoro-4-imino-3-methyl-1-tosyl-3,4-dihydropyrimidin-2(1H)-one]
[1]; compound of Formula I alone, rate 5 g a.i./ha
  Observed Efficacy: 56.4%
[1]; compound of Formula I alone, rate 10 g a.i./ha
  Observed Efficacy: 69.1%
[2]; compound of Formula I alone, rate 5 g a.i./ha, Example 4
  Observed Efficacy: 63.2%

## CC1CC(C)(C)c2c(F)ccc(NC(=O)c3cn(C)nc3C(F)F)c21 (stereo not drawn) [Fluindapyr, 3-(Difluoromethyl)-N-(7-fluoro-2,3-dihydro-1,1,3-trimethyl-1H-inden-4-yl)-1-methyl-1H-pyrazole-4-carboxamide]
[1]; [3]
  Observed Efficacy: 43.5%

## CON(C(=O)c1cn(C)nc1C(F)F)[C@@H](C)Cc1c(Cl)cc(Cl)cc1Cl [Pydiflumetofen, 3-(difluoromethyl)-N-methoxy-1-methyl-N-[(2S)-1-(2,4,6-trichlorophenyl)propan-2-yl]-1H-pyrazole-4-carboxamide]
[2]; pydiflumetofen alone, rate 0.00032 g a.i./ha
  Observed Efficacy: 21.3%
[2]; pydiflumetofen alone, rate 0.0016 g a.i./ha
  Observed Efficacy: 35.6%
[2]; pydiflumetofen alone, rate 0.008 g a.i./ha
  Observed Efficacy: 44.0%
